These results are taken from article PMC10384010, “Chromatographic Data in Statistical Analysis of BBB Permeability Indices” (Membranes, 2023).

Where two headings read alike, the source gives them in different places.

Data set [1] is described as follows: Normal-phase TLC on silica gel 60 F254 (Rf). In kind it is physicochemical. Particulars: water:methanol:acetonitrile 60:20:20, ammonium acetate pH 7.4.
A short description of data set [2]: HPLC on IAM (immobilized artificial membrane) column, retention factor. In kind it is physicochemical. Particulars: IAM.PC.DD.2 column; for k(IAM) retention factor: 10 mM phosphate buffer pH 7.4:acetonitrile 80:20; for logkIAM: logarithm of retention factor, phosphate buffer pH 7.4:acetonitrile 80:20.
Description: Chromatographic data also came from an experiment with a HPLC IAM (immobilized artificial membrane) column (Regis Technologies Inc.: IAM.PC.DD.2, 10 µm; 4.6 mm × 10 mm). The column contains a standard membrane consisting of a phospholipid bilayer. Organic solvents (acetonitrile and methanol) and water (J.T. Baker HPLC) were used in HPLC. Sigma phosphate buffered saline tablets were used to prepare the phosphate buffer. The mobile phase was a mixture of 10 mM phosphate buffer at pH 7.4 and acetonitrile in the ratio of 80:20 (v/v) [35]. The mobile phase flow was set at 0.5 mL/min; detection was carried out with a UV–Vis detector. The obtained values of the retention factor (k IAM) were transformed into a logarithmic form and entered into the statistical analysis (descriptor: log k IAM).
The conditions of data set [3]: cited from earlier work.
Data set [4] can be described thus: Reversed-phase TLC on RP-2 silanized plates (Rf). The class given is physicochemical. The note with it: silica gel 60 RP-2 F254 silanized; water:methanol:acetonitrile 60:20:20, ammonium acetate pH 7.4.
Description: The purity of the isolated substances was checked by TLC chromatography and densitometric scanning.
APIs were subjected to chromatographic in column (HPLC) and thin layer (TLC) formats. TLC chromatography was carried out on 20 cm × 20 cm glass plates by Merck, covered with silica gel and the addition of a fluorescent indicator. Merck TLC silica gel 60 F254 was used for the normal phase (NP). In the reverse phase (RP), RP-2 silanized plates were used (Merck TLC Silica gel 60 RP-2 F254, silanized). The mobile phase was buffered with ammonium acetate to pH 7.4 (LACH-NER, ammonium acetate).
Plates, after developing the chromatograms, were scanned using a densitometer (Desaga CD 60) with an analytical wavelength selected individually for drugs. The values of Rf (molecular descriptors: NP, RP) were determined.
[5] abbreviates: plasma protein binding, given as fraction, ref Drugbank.

For `CC(=O)OCC(=O)[C@@]1(O)CC[C@H]2[C@@H]3CCC4=CC(=O)CC[C@]4(C)[C@H]3[C@@H](O)C[C@@]21C` [hydrocortisone acetate], the “NP (Rf from NP TLC plate)” value in data set [1] stood at 0.96. In addition, in data set [2], the “k(IAM) retention factor” value worked out at 2.82 and the logkIAM came out at 0.45. Also, the “PB (protein binding)” value in data set [3] (setting [5]) was 0.95.
For the compound `Cc1nnc2n1-c1ccc(Cl)cc1C(c1ccccc1)=NC2` [alprazolam], in data set [2], the “k(IAM) retention factor” value is listed as 3.14 and the logkIAM was found to be 0.50. The “PB (protein binding)” value in data set [3] (setting [5]) was 0.8.
Turning to `C[C@]12C=CC(=O)C=C1CC[C@@H]1[C@@H]2[C@@H](O)C[C@@]2(C)[C@H]1CC[C@]2(O)C(=O)CO` [prednizolone], the “NP (Rf from NP TLC plate)” value in data set [1] is reported as 0.94. In data set [4], the “RP (Rf from RP-2 TLC plate)” value is listed as 0.87. Also, in data set [2], the “k(IAM) retention factor” value is recorded as 2.84 and the logkIAM came to 0.45. Further, the “PB (protein binding)” value in data set [3] (plasma) is on record as 0.9.
On to `C=CCN1C[C@H](C(=O)N(CCCN(C)C)C(=O)NCC)C[C@@H]2c3cccc4[nH]cc(c34)C[C@H]21` [carbegoline], for which, in data set [1], the “NP (Rf from NP TLC plate)” value came to 0.68. For the same compound, in data set [4], the “RP (Rf from RP-2 TLC plate)” value came out at 0.68. Besides, in data set [2], the “k(IAM) retention factor” value is 17.05 and the logkIAM worked out at 1.23. The “PB (protein binding)” value in data set [3] (plasma) is on record as 0.41.
With `Cc1cncc(CN2CCC(=C3c4ccc(Cl)cc4CCc4cccnc43)CC2)c1` [rupatadine], in data set [1], the “NP (Rf from NP TLC plate)” value is reported as 0.42. In addition, the “RP (Rf from RP-2 TLC plate)” value in data set [4] amounted to 0.55. In addition, in data set [2], the “k(IAM) retention factor” value stood at 9.29 and the logkIAM stood at 0.97. Also, in data set [3] (setting [5]), the “PB (protein binding)” value is 0.985.
For the compound `CC[C@H]1OC(=O)[C@H](C)[C@@H](O[C@H]2C[C@@](C)(OC)[C@@H](O)[C@H](C)O2)[C@H](C)[C@@H](O[C@@H]2O[C@H](C)C[C@H](N(C)C)[C@H]2O)[C@](C)(O)C[C@@H](C)/C(=N\OCOCCOC)[C@H](C)[C@@H](O)[C@]1(C)O` [roxitromicin], the “NP (Rf from NP TLC plate)” value in data set [1] is 0.91. The “RP (Rf from RP-2 TLC plate)” value in data set [4] is 0.8. Further, the “PB (protein binding)” value in data set [3] (plasma) is 0.96.
For the compound `CC(=O)Nc1nnc(S(N)(=O)=O)s1` [acetazolamid], the “RP (Rf from RP-2 TLC plate)” value in data set [4] is given as 0.97. Also, the “PB (protein binding)” value in data set [3] (setting [5]) is given as 0.98.
In the case of `CCCCC(=O)N(Cc1ccc(-c2ccccc2-c2nnn[nH]2)cc1)[C@H](C(=O)O)C(C)C` [valsartan], in data set [2], the “k(IAM) retention factor” value is listed as 0.08 and the logkIAM is -1.10. Besides, in data set [3] (setting [5]), the “PB (protein binding)” value is 0.955.
As for `CN[C@H]1CC[C@@H](c2ccc(Cl)c(Cl)c2)c2ccccc21` [sertraline], in data set [1], the “NP (Rf from NP TLC plate)” value is listed as 0.53. For the same compound, in data set [4], the “RP (Rf from RP-2 TLC plate)” value was determined as 0.49. Further, in data set [2], the “k(IAM) retention factor” value was 42.89 and the logkIAM came to 1.63. Moreover, in data set [3] (setting [5]), the “PB (protein binding)” value is 0.98.
In the case of `C[C@H]1COc2c(N3CCN(C)CC3)c(F)cc3c(=O)c(C(=O)O)cn1c23` [levofloxacin], the “NP (Rf from NP TLC plate)” value in data set [1] was determined as 0.17. Besides, in data set [4], the “RP (Rf from RP-2 TLC plate)” value was determined as 0.27. Besides, in data set [2], the “k(IAM) retention factor” value is given as 0.90 and the logkIAM is -0.04. Also, in data set [3] (setting [5]), the “PB (protein binding)” value is reported as 0.31.
`COc1cccc(C2(O)CCCCC2CN(C)C)c1` (stereo not shown) [tramadol]: the “PB (protein binding)” value in data set [3] (setting [5]) was 0.2.
Consider `CO[C@H]1/C=C/O[C@@]2(C)Oc3c(C)c(O)c4c(O)c(c(/C=N/N5CCN(C)CC5)c(O)c4c3C2=O)NC(=O)/C(C)=C\C=C\[C@H](C)[C@H](O)[C@@H](C)[C@@H](O)[C@@H](C)[C@H](OC(C)=O)[C@@H]1C` [rifampicin], for which the “NP (Rf from NP TLC plate)” value in data set [1] is 0.73. Moreover, the “RP (Rf from RP-2 TLC plate)” value in data set [4] is 0.95. The “PB (protein binding)” value in data set [3] (setting [5]) is 0.89.
Regarding `CN1CCN=C(c2ccccc2)c2cc(Cl)ccc21` [medazepam], the “NP (Rf from NP TLC plate)” value in data set [1] is 0.91. Besides, the “RP (Rf from RP-2 TLC plate)” value in data set [4] is given as 0.66. In data set [2], the “k(IAM) retention factor” value came to 34.65 and the logkIAM was 1.54. Moreover, the “PB (protein binding)” value in data set [3] (setting [5]) is listed as 0.99.
On to `CN(C)CCCC1(c2ccc(F)cc2)OCc2cc(C#N)ccc21` (stereo not shown) [citalopram], for which, in data set [3] (setting [5]), the “PB (protein binding)” value is on record as 0.8.
For the compound `CCCC(=O)Nc1ccc(OCC(O)CNC(C)C)c(C(C)=O)c1` (stereo not shown) [acebutolol], in data set [3] (setting [5]), the “PB (protein binding)” value is 0.26.
On to `CCN(CC)CCCC(C)Nc1ccnc2cc(Cl)ccc12` (stereo not shown) [chloroquine], for which, in data set [3] (setting [5]), the “PB (protein binding)” value is reported as 0.55.
With `CC(C)NCC(O)COc1ccc(CCOCC2CC2)cc1` (stereo not shown) [betaxolol], in data set [1], the “NP (Rf from NP TLC plate)” value is 0.66. Also, in data set [4], the “RP (Rf from RP-2 TLC plate)” value is on record as 0.27. Besides, the “PB (protein binding)” value in data set [3] (setting [5]) was 0.5.
Take `CCS(=O)(=O)CCn1c([N+](=O)[O-])cnc1C` [tinidazole]: in data set [1], the “NP (Rf from NP TLC plate)” value is 0.89. In addition, in data set [3] (setting [5]), the “PB (protein binding)” value was 0.12.
`CCN(CC)CC#CCOC(=O)C(O)(c1ccccc1)C1CCCCC1` (stereo not shown) [oxybutinin]: in data set [1], the “NP (Rf from NP TLC plate)” value stood at 0.68. Besides, in data set [4], the “RP (Rf from RP-2 TLC plate)” value turned out to be 0.29. Besides, in data set [2], the “k(IAM) retention factor” value turned out to be 49.68 and the logkIAM came out at 1.70.
Take `CC(C)NCC(O)COc1cccc2[nH]ccc12` (stereo not shown) [pindolol]: the “NP (Rf from NP TLC plate)” value in data set [1] was 0.53. For the same compound, in data set [2], the “k(IAM) retention factor” value amounted to 6.09 and the logkIAM is listed as 0.78. Moreover, the “PB (protein binding)” value in data set [3] (setting [5]) is 0.4.
`O=C1Nc2ccc(Cl)cc2C(c2ccccc2)=NC1O` (stereo not shown) [oxazepam]: the “NP (Rf from NP TLC plate)” value in data set [1] is 0.93. The “RP (Rf from RP-2 TLC plate)” value in data set [4] is listed as 0.83. Also, in data set [2], the “k(IAM) retention factor” value stood at 4.78 and the logkIAM is 0.68.
For the compound `CN(C)CCC[C@@]1(c2ccc(F)cc2)OCc2cc(C#N)ccc21` [escitalopram], in data set [2], the “k(IAM) retention factor” value was 32.08 and the logkIAM worked out at 1.51. Also, the “PB (protein binding)” value in data set [3] (setting [5]) is on record as 0.56.
Turning to `CCCc1cc(=O)[nH]c(=S)[nH]1` [propylthiouracil], the “PB (protein binding)” value in data set [3] (setting [5]) is 0.82.
For `CC1COc2c(N3CCN(C)CC3)c(F)cc3c(=O)c(C(=O)O)cn1c23` (stereo not shown) [ofloxacin], the “NP (Rf from NP TLC plate)” value in data set [1] is recorded as 0.24. Further, the “PB (protein binding)” value in data set [3] (setting [5]) is 0.32.
As to `O=C(N[C@H](CO)[C@H](O)c1ccc([N+](=O)[O-])cc1)C(Cl)Cl` [chloramphenikol], the “NP (Rf from NP TLC plate)” value in data set [1] worked out at 0.99. The “RP (Rf from RP-2 TLC plate)” value in data set [4] is given as 0.89. In data set [2], the “k(IAM) retention factor” value was 1.08 and the logkIAM came to 0.03.
As for `Nc1nc2c(ncn2COCCO)c(=O)[nH]1` [aciclovir], in data set [4], the “RP (Rf from RP-2 TLC plate)” value turned out to be 0.99. In addition, in data set [2], the “k(IAM) retention factor” value was determined as 0.09 and the logkIAM is -1.04. In addition, the “PB (protein binding)” value in data set [3] (setting [5]) was 0.21.
With `COC(=O)c1ccc(O)cc1` [methyl paraben], the “NP (Rf from NP TLC plate)” value in data set [1] turned out to be 0.97. Moreover, the “RP (Rf from RP-2 TLC plate)” value in data set [4] stood at 0.85. In addition, in data set [2], the “k(IAM) retention factor” value is listed as 1.94 and the logkIAM is 0.29.
Consider `O=C(O)COC(=O)Cc1ccccc1Nc1c(Cl)cccc1Cl` [aceclofenac], for which the “NP (Rf from NP TLC plate)” value in data set [1] is 0.89. Further, in data set [2], the “k(IAM) retention factor” value is recorded as 2.63 and the logkIAM amounted to 0.42. In addition, in data set [3] (setting [5]), the “PB (protein binding)” value was 0.99.
